Laboratory results as given in paper PMC7600788, “Sequence Permutation Generates Peptides with Different Antimicrobial and Antibiofilm Activities” (Pharmaceuticals, 2020).
No end group written: not given here.

Tests used:
S. aureus USA300 LAC [1] = assay: Inhibition of biofilm attachment (XTT); assay type: cell-based, Staphylococcus aureus; settings: 12.5 µM; 1 h, XTT
Description: Antimicrobial effects of the peptides are different on diverse forms of bacteria. The free and motile forms cultivated in laboratories are the planktonic bacteria onto which the peptides and antibiotics can have direct effects. However, the activity of the microbicides can be reduced to the biofilm forms where bacteria are less exposed and hidden inside the shield. The development of the biofilms starts with the attachment of the individual cells on the substratum followed by biofilm growth and maturation into more solid biomass. We tested the ability of WW295 and WW298 in fighting the biofilms of S. aureus USA300 LAC at the two stages. […] These 96-well commercial plates were pre-treated commercially with tissue culture to enhance cell adhesion.
This experiment was performed to measure the ability of the peptide to inhibit bacterial attachment, the initial step for biofilm formation. In short, an overnight culture of S. aureus USA300 was grown in TSB media to an optical density (600 nm) of ∼1.0. […] Live cells in the biofilms were then quantitated using XTT [2,3-bis(2-methyloxy-4-nitro-5-sulfophenyl)-2H-tertazolium-5-carboxanilide] assay by following the manufacturer’s instructions with modifications. […] Absorbance at 450 nm (only media with XTT containing wells served as the blank) was obtained using a Chromate^TM microtiter plate reader. […]

S. aureus USA300 LAC [2] = assay: Disruption of 24 h established biofilms (XTT); assay type: cell-based, Staphylococcus aureus; settings: 24 h treatment
Description: We also compared the effects of the peptides on established biofilms (24 h). […] When cells are alive (in the absence of peptide), the cell-permeant calcein-AM dye could enter the cells and gave green color as a consequence of the removal of acetoxymethyl (AM) esters by intracellular esterase (Figure 7A). When the cells were dead due to membrane damage by the peptide, the red dye ethidium homodimer (non-membrane permeable) could enter the cell and become red by binding to nucleic acids (Figure 7B).
The antibiofilm activity of the peptide against 24 h established biofilms was evaluated as previously described. In short, S. aureus USA300 LAC (10^5 CFU/mL) was made from exponential phase bacteria in TSB media and 180 μL were distributed to each well of the microtiter plate (Corning Costar Cat No. 3595, Amsterdam, The Netherlands). The plates were incubated at 37 °C for 24 h to form a biofilm. Culture treated with water served as a positive control while media without bacterial inoculation served as the negative control. Media were then pipetted out and the attached biofilms were washed with 1× PBS to remove the planktonic bacteria. Each well of the plate was then filled with 20 μL of 10× peptide solution and 180 μL of fresh TSB media and the plates were further incubated at 37 °C for 24 h. Media were then pipetted out and the wells were washed with 1× PBS to remove planktonic cells. The live cells in biofilms were estimated by XTT assay as mentioned above.

E. coli ML35p = assay: Simultaneous outer and inner membrane permeation (nitrocefin / ONPG); assay type: cell-based, Escherichia coli; settings: 3.1 µM
Description: To confirm the mechanism of action, we also performed membrane permeation using a reporter strain of E. coli ML35p. This strain enabled simultaneous monitoring of membrane permeation of both the inner and outer membranes of Gram-negative bacterium E. coli. Both WW295 and WW298 were included in the experiment. […] This is indicated by the sharp development of absorbance at 490 nm for nitrocefin (panel A) and at 420 nm for ONPG (panel B).
The E. coli ML-35p strain was utilized to probe the permeation of both the outer membrane (OM) and inner membrane (IM). This strain was engineered to have two membrane reporters. Nitrocefin is used for detection of OM permeabilization. Nitrocefin is excluded from the periplasm. […] The chromogenic cleavage product was spectrophotometrically monitored at 490 nm. […] However, permeabilization of the IM helps ONPG to enter cytoplasm and get cleaved by cytoplasmic β-galactosidase into o-nitrophenol, which can be detected spectrophotometrically at 420 nm. […] Absorbances at both 490 and at 420 nm were monitored using FLUOstar Omega (BMG, Labtech, NC, USA) simultaneously. After shaking at 100 rpm, readings were taken every 2 min for a total of 40 min at 37 °C. Data were analyzed using the MARS data analysis software provided by the manufacturer and representative plots were made using the GraphPad Prism 7 software.

S. aureus USA300 LAC [3] = assay: Membrane depolarization, DiBAC4(3); assay type: cell-based, Staphylococcus aureus; settings: 12.5 µM
Description: Bacteria surfaces are negative and cationic peptides are able to neutralize the negative charge, thereby reducing membrane potential. To test this possibility, we evaluated the peptides against S. aureus USA300 LAC using a fluorescent indicator dye, the DiBAC4(3) (Figure 5).
The overnight culture of S. aureus USA300 LAC was grown in TSB media to the exponential phase. Cells were then pelleted and washed with PBS twice, and re-suspended in twice the volume of PBS containing 25 mM glucose for 15 min at 37 °C. For membrane depolarization measurements, 250 nM (final concentration) of the dye DiBAC4(3) (bis-(1,3-dibutylbarbituric acid) trimethine oxonol (ANASPEC, Fremont, CA, USA) was added, and vortexed gently. Ninety microliters of the energized bacteria solution were then added in a 96-well microtiter plate (Corning COSTAR). The plate was immediately placed into a FLUOstar Omega (BMG LABTECH Inc., Cary, NC, USA) microplate reader and fluorescence was measured for 20 min. Once the readings are stabilized, 10 μL of peptide solution were added and the fluorescence readings were continued for another 40 min. Measurements were done at an excitation and emission wavelengths of 485 and 520 nm, respectively. Triton X-100 (0.1%) was included as a positive control.

A. baumannii B28-16 = assay type: cell-based, Acinetobacter baumannii; settings: B28-16
Description: (§1) The antimicrobial activity spectrum of the WW peptide series was performed on a panel of Gram-positive and -negative bacteria using the standard broth micro-dilution method with minor modifications as described. […] There was a small change in the case of Pseudomonas aeruginosa and Acinetobacter baumannii up to two-fold. Four-fold changes were found for Staphylococcus aureus, Staphylococcus epidermidis, Escherichia coli, and Bacillus subtilis. However, we observed over eight-fold MIC changes for Klebsiella pneumoniae and vancomycin-resistant enterococcus (VRE). […] We also observed more than eight-fold changes in minimal bacterial killing concentrations.
(§2) The antibacterial activity of peptides was evaluated using a standard broth microdilution protocol with minor modifications as previously described. In brief, logarithmic phase bacterial cultures (i.e., optical density at 600 nm ≈ 0.5) were diluted to OD600~0.001 and partitioned into a 96-well polystyrene microplate at 90 μL per well. After treatment with 10 μL of peptide solutions two-fold diluted to various concentrations, microplates were incubated at 37 °C overnight and read on a ChroMate 4300 Microplate Reader at 630 nm (GMI, Ramsey, MN). […] Minimal bactericidal concentration (MBC) was determined by plating the clear wells at MIC or above. The peptide concentration that caused no bacterial growth on the petri dish is MBC.

S. aureus Mu50 = assay type: cell-based, Staphylococcus aureus; settings: Mu50
Description: as §1, §2

E. coli ATCC 25922 = assay type: cell-based, Escherichia coli; settings: ATCC 25922
Description: (§3) To gain additional insight, we also compared the effects of physiological saline and human serum on the antibacterial activities of WW291-WW298 using both E. coli and S. aureus (Table 3). In our assays, salts and serum were present during the entire course of the experiment. […] Thus, WW295 and WW298 stand out in terms of activity robustness (bold in Table 3).
as §2

P. aeruginosa PAO1 = assay type: cell-based, Pseudomonas aeruginosa; settings: PAO1
Description: as §1, §2

[4] = system: monkey kidney Vero E6 cells; assay type: cell-based
Description: Peptides were assayed for potential in vitro toxicity against human keratinocytes (HaCaT) and THP-1 cells as previously described. THP-1 monocytes were differentiated into macrophages by adding 30 ng/mL of phorbol 12-myristate 13-acetate (PMA; Sigma-Aldrich) to RPMI 1640 supplemented with 10% fetal calf serum culture (FCS) medium for 16 h. Briefly, cells were seeded at a density of 3 × 10^4 per well in a tissue culture 96-well plate in DMEM/RPMI supplemented with 10% fetal bovine serum (FBS), and incubated at 37 °C in a 5% CO2 atmosphere for 24 h. African green monkey kidney Vero E6 cells were cultivated in EMEM in the same manner. Before antimicrobial treatment, wells were replaced with serum free media and treated with peptides at different concentrations for one hour. After incubation, the cells were washed and incubated with 100 μL of DMEM media containing 20 μL of 3-(4,5-dimethylthiazol-2-yl)-5-(3-carboxymethoxyphenyl)-2-(4-sulfophenyl)-2H-tetrazolium (MTS) reagent for two hours at 37 °C. […] Absorbance readings at 492 nm were taken using a ChroMate microplate reader (GMI, Ramsey, MN, USA).

S. aureus USA300 LAC [5] = assay type: cell-based, Staphylococcus aureus; settings: USA300
Description: as §3, §2

B. subtilis 167 = assay type: cell-based, Bacillus subtilis; settings: 167
Description: as §1, §2

S. aureus USA300 = assay type: cell-based, Staphylococcus aureus; settings: USA300
Description: as §2

E. faecium VRE = assay type: cell-based; settings: VRE
Description: as §1, §2

K. pneumonia ATCC 13883 = settings: cited from earlier work
Description: Table 2 Antibacterial activities of the WW peptides against various bacteria. | column: Minimal Inhibitory Concentration (MIC, μM) / KP ^a

chicken red blood cells = assay: Hemolytic assay; assay type: cell-based
Description: (§4) Hemolytic assays of peptides were performed as previously described. Briefly, human red blood cells (hRBCs) obtained from UNMC Blood Bank, or chicken or porcine blood cells purchased from commercial sources as previously described, were washed three times with phosphate buffer saline (PBS) and diluted to a 2% solution (V/v). After peptide treatment, incubation at 37 °C for one hour, and centrifugation at 13,000 rpm, aliquots of the supernatant were carefully transferred to a fresh 96-well microplate. The amount of hemoglobin released was measured at 545 nm. The percent lysis was calculated by assuming 100% release when human blood cells were treated with 2% Triton X-100, and 0% release when incubated with PBS buffer. The peptide concentration that caused 50% lysis of hRBCs is defined as HC50.

human red blood cells = assay: Hemolytic assay; assay type: cell-based; settings: red cells of human
Description: as §4

E. coli K12 = assay type: cell-based, Escherichia coli; settings: K12
Description: as §1, §2

Compound: CCCCCCCCCC(=O)N[C@@H](Cc1c[nH]c2ccccc12)C(=O)N[C@H](CC(N)=O)C(=O)N[C@@H](CC(=O)O)C(=O)N[C@@H]1C(=O)NCC(=O)N[C@@H](CCCN)C(=O)N[C@@H](CC(=O)O)C(=O)N[C@H](C)C(=O)N[C@@H](CC(=O)O)C(=O)NCC(=O)N[C@H](CO)C(=O)N[C@@H]([C@H](C)CC(=O)O)C(=O)N[C@@H](CC(=O)c2ccccc2N)C(=O)O[C@@H]1C [daptomycin, reference compound]
- inhibition of MRSA adherence (S. aureus USA300 LAC [1]): ~ 50%
- disruption of established biofilms (24 h) (S. aureus USA300 LAC [2]; 3.1 µM): much less effective than WW298
- disruption of established biofilms (24 h) (S. aureus USA300 LAC [2]; 6.25 µM): eradicating almost all the established biofilm
- outer and inner membrane permeation (nitrocefin 490 nm, ONPG 420 nm) (E. coli ML35p): poor in membrane permeation
- membrane depolarization (DiBAC4(3) fluorescence) (S. aureus USA300 LAC [3]): significantly less membrane depolarization

Compound: WWWLRKIW [WW291]
- Minimal Inhibitory Concentration (MIC), AB (A. baumannii B28-16): 6.25 µM
- Minimal Inhibitory Concentration (MIC), SA (S. aureus Mu50): 3.1 µM
- MIC, +150 mM NaCl (E. coli ATCC 25922): 12.5 µM
- MIC, +10% Human Serum (E. coli ATCC 25922): >25 µM
- MIC, TSB (E. coli ATCC 25922): 6.2 to 12.5 µM
- Minimal Inhibitory Concentration (MIC), PA (P. aeruginosa PAO1): 50 µM
- Vero Cells, concentration that caused 50% cell death (LC50) [4]: 100 µM
- MIC, +150 mM NaCl (S. aureus USA300 LAC [5]): 3.1 µM
- MIC, +10% Human Serum (S. aureus USA300 LAC [5]): 25 µM
- MIC, TSB (S. aureus USA300 LAC [5]): 3.1 µM
- Minimal Inhibitory Concentration (MIC), BS (B. subtilis 167): 6.25 µM
- MBC, USA300 (S. aureus USA300): 6.2 µM
- Minimal Inhibitory Concentration (MIC), VRE (E. faecium VRE): 25 µM
- Minimal Inhibitory Concentration (MIC), KP (K. pneumonia ATCC 13883): 12.5 µM
- Chicken RBC, concentration that caused 50% red blood cell lysis (HC50) (chicken red blood cells): 50 µM
- Human RBC, concentration that caused 50% red blood cell lysis (HC50) (human red blood cells): 30 µM
- Minimal Inhibitory Concentration (MIC), EC (E. coli K12): 6.2 to 12.5 µM
